For test [1], the system named is P. falciparum 7G8. The test can be described thus: Parasite growth by [3H]-hypoxanthine incorporation. The test is classed as cell-based. The settings on record: 7G8 strain, chloroquine-resistant. As for the experimental part:
(§1) Since the primary structure of PfSPP is highly conserved, the effect of these inhibitors on the growth of other P. falciparum strains was also tested. The parasite strains tested included two chloroquine-resistant P. falciparum strains (7G8, Dd2), one chloroquine-sensitive strain (HB3), and one mildly chloroquine-resistant strain (FCR3). Parasite growth was evaluated in these four strains by measuring [^3H]-hypoxanthine incorporation starting at 24 h post-invasion. Both (Z-LL)2-ketone and L-685,458 inhibited parasite growth in all 4 parasite strains with the IC50 values similar to 3D7 strain, while DAPT had no effect on any strain (Table 2).

The test system of test [2] is P. falciparum HB3. The test can be described thus: Parasite growth by [3H]-hypoxanthine incorporation. The test is classed as cell-based. The settings on record: HB3 strain, chloroquine-sensitive. The method, then: as §1
Test [3] deals with P. falciparum FCR3. The test can be described thus: Parasite growth by [3H]-hypoxanthine incorporation. The test is classed as cell-based. The settings on record: FCR3 strain, mildly chloroquine-resistant. The method, then:
as §1

Test [4] has as its system P. falciparum Dd2. The test can be described thus: Parasite growth by [3H]-hypoxanthine incorporation. The test is classed as cell-based. The settings on record: Dd2 strain, chloroquine-resistant. As for the experimental part:
as §1

The test system of test [5] is P. falciparum 3D7. The test can be described thus: Parasite growth in human erythrocytes from synchronized ring stage. The test is classed as cell-based. As to conditions: for inhibition of parasite replication (in words): 10 μM, after one cycle of asexual multiplication; for effect on parasite growth in erythrocytes (in words): ring stage parasites, 0.2% DMSO. An excerpt: FIG. 9B depicts a graph indicating inhibition of parasite growth as a result of (Z-LL)2-ketone (▪), L-685,458 (•), and DAPT (♦) treatment. […] FIG. 9C is a schematic diagraph showing disruption of the P. falciparum (3D7 strain) PfSPP gene. PfSPP5′ and PfSPP3′ represent 5′ translated region (616 bp) and 3′ translated region (711 bp) of the PfSPP gene, respectively. Dashed lines represent bacterial vector sequences. Bold lines represent untranslated regions of the target PfSPP gene.
The P. falciparum strain 3D7 (obtained from MR4) was maintained in continuous culture in a 5% suspension of fresh type O+ human erythrocytes in RPMI 1640 at 37° C. under 5% CO2, 5% O2, and 90% N2 by the method of Trager and Jensen (Trager et al., 1976, Science 193:673-5). Ring-stage parasites were synchronized by using 5% sorbitol treatment and late-stage parasites were enriched to >95% by centrifugation in 63% (v/v) Percoll as described (Goel et al., 2003, Proc Natl Acad Sci USA 100:5164-5169). The parasite protein extract was prepared by solubilizing an enriched fraction of mature parasites with an extraction buffer (50 mM Tris-HCl, pH 8.0, 150 mM NaCl, 5 mM EDTA, 5 mM EGTA, 0.5% Triton X-100, 0.5% BSA) supplemented with 2 μg/ml Aprotinin, 1 μg/ml of Leupeptin, Pepstatin A, Bestatin, 10 mM PMSF, and a cocktail of protease inhibitors (Roche, Indianapolis, Ind.). The mixture was kept on ice for 1 h and centrifuged at 12,000 g for 20 min at 4° C. The supernatant was stored at −80° C. in aliquots and used in the antibody characterization and binding assays.
The effects of the three inhibitors on malaria parasite growth in human erythrocytes were examined Synchronized ring stage parasites were incubated with inhibitors in the presence of 0.2% DMSO. […] The precipitous decline in parasitemia presumably originated from inhibition of late rings or early trophozoites, as pyknotic parasites were observed after 24-48 h of culture in the presence of (Z-LL)2-ketone and L-685,458 (FIG. 4). Destruction of the inhibitor-treated parasites was irreversible, as no progression to the second asexual cycle was observed. In contrast, DAPT had little or no effect on parasite growth as compared to the DMSO-treated control (FIG. 9A).

Test [6] addresses T1, γ-secretase/Presenilin-1 complex (Homo sapiens, UniProt P49768).
T1 construct: host or cells: live mammalian cells
The settings on record: (Z-LL)2-ketone up to 100 μM; cited from earlier work.

Test [7] deals with P. falciparum merozoite invasion of human erythrocytes. The test can be described thus: RBC invasion by synchronized schizonts with SPP inhibitors, new rings counted. The test is classed as cell-based. The settings on record: increasing concentrations, 20 h, versus DMSO. An excerpt:
To investigate the role of PfSPP in parasite invasion, a chemical approach was adopted by employing three synthetic inhibitors of mammalian membrane aspartyl proteases. The inhibitor (Z-LL)2-ketone (Calbiochem/EMD Biosciences, Gibbstown, N.J.) is specific for mammalian SPP, whereas the L-685,458 and DAPT inhibitors (both were gift of Dr. S. Sisodia of the University of Chicago) are known to be specific for the γ-secretase/Presenilin-1 complex (FIG. 8A). […] Herein, human erythrocytes with highly synchronized P. falciparum schizonts were incubated in the presence of increasing concentrations of (Z-LL)2-ketone, L-685,458, and DAPT. After 20 h of incubation, the rings were counted from the inhibitor and DMSO treated samples.

For test [8], the system named is incomplete version of PfSPP lacking the 6 amino acids. The settings on record: cited from earlier work.
Test [9] has as its target T2, SPP (Homo sapiens, UniProt Q8TCT9).
T2 sequence (Q8TCT9 1-377): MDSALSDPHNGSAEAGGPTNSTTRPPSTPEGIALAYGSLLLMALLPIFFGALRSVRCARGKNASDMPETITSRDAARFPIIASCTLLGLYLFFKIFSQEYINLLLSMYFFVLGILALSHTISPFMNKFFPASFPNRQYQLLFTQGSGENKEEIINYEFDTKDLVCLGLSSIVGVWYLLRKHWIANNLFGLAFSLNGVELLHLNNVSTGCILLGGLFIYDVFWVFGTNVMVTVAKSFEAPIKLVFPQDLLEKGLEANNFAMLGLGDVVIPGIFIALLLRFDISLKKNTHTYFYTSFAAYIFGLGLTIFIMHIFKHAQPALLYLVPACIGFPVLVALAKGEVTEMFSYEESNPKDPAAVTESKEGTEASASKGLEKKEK
The settings on record: DAPT at 100 μM; cited from earlier work.

Test [10] has as its system PfSPP. The test can be described thus: RBC-binding assay in suspension with native PfSPP from culture supernatant. More on the design: species or system P. falciparum. The settings on record: soluble protein 40 μM, quantified by densitometry of immunoblot. As for the experimental part: To carry out a RBC-binding assay in solution using native PfSPP, a spent culture supernatant of P. falciparum containing native PfSPP was prepared as follows. Trophozoites enriched from a 5% sorbitol-synchronized P. falciparum culture were allowed to mature for 16 h to form schizonts and merozoites. The parasites were left in the culture flask to lyse and the proteins were released into the culture supernatant. Aliquots of the culture were centrifuged at either 12,000 g for 20 min or 40,000 g for 15 min at 4° C. The culture supernatant and pellet were analyzed by immunoblot analysis using anti-PfSPP pAbs. The culture supernatant prepared at 12,000 g was stored at −80° C. in aliquots and used in subsequent RBC binding assays. In these assays, a 500 μl sample of P. falciparum culture supernatant was added to untreated, trypsin-treated, chymotrypsin-treated, or neuraminidase-treated intact human RBCs (50 μl packed volume) for 1 h at room temperature. The cells were centrifuged at 12,000 g for 30 s through a layer of silicone oil (500 μl). Proteins bound to RBCs were eluted by incubating the RBCs in 1.5 M NaCl (20 μl) for 30 min at room temperature. Salt-eluted proteins were analyzed by SDS-PAGE followed by immunoblotting using anti-PfSPP Abs. The pretreatment of intact RBCs with enzymes was carried out as described (Goel et al., 2003, Proc Natl Acad Sci USA 100:5164-5169). […]
A general note: A western blot detects proteins with antibodies after separation by electrophoresis.

For test [11], the target named is T3, GST-5ABC (GST fused to residues 720-761 of human erythrocyte band 3) (human, UniProt P02730 720-761).
T3 construct: also called soluble GST-5ABC; GST-5ABC conjugated to beads
T3 chain: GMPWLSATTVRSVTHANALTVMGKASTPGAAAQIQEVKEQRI
The test can be described thus: bead pull-down (GST-5ABC on GSH beads), immunoblot with anti-PfSPP/ER pAbs.

Setting [12] is: 3D7 strain, read-out: IC50 parasite growth.
The mark [13] stands for this setting: FIG. 9B legend, read-out: IC50 for live parasites.

Broadly, the IC50 is the midpoint of a concentration-inhibition curve.

Entries after “also recorded” stand apart in the source; their conditions may differ. Read-outs that look alike come from different tables or passages of the source. No end group written: not given here.

Turning to `CC(C)C[C@H](NC(=O)OCc1ccccc1)C(=O)N[C@@H](CC(C)C)C(=O)NCC(=O)CNC(=O)[C@H](CC(C)C)NC(=O)[C@H](CC(C)C)NC(=O)OCc1ccccc1` [(Z-LL)2-ketone], the IC50 in test [1] was 1120 ± 50 nM; in [2], 1060 ± 50 nM; in test [3], 1230 ± 40 nM; in [4], 1080 ± 70 nM; in [5] (setting [12]), 985 nM; in test [5] (setting [13]) it was 985 nM. The “inhibition of parasite replication (in words)” value in test [5] is listed as “complete inhibition”. Further, the “effect on parasite growth in erythrocytes (in words)” value (“effect on parasite growth” below) in [5] is listed as “significant inhibition”. Further, the “inhibition of γ-secretase/Presenilin-1 activity (in words)” value in [6] is listed as “does not inhibit”. Moreover, the “effect on parasite/merozoite invasion (in words)” value in test [7] was “efficiently inhibited; also recorded: significant decrease in the number of new rings”. Also, the “inhibition of in vitro enzyme activity (in words)” value in test [8] is “inhibited”.
Take `C[C@H](NC(=O)Cc1cc(F)cc(F)c1)C(=O)N[C@H](C(=O)OC(C)(C)C)c1ccccc1` [DAPT]: the IC50 in test [1], in test [2], in test [3] and in test [4] was > 10000 nM in each case. For the same molecule, the “effect on parasite growth” value in test [5] is recorded as “no effect”. The “effect on SPP activity (in words)” value in [9] is “no effect”. For the same molecule, in [7], the “effect on parasite/merozoite invasion (in words)” value is listed as “minimal effect; also recorded: no effect”.
For `CC(C)C[C@H](NC(=O)[C@H](Cc1ccccc1)C[C@@H](O)[C@H](Cc1ccccc1)NC(=O)OC(C)(C)C)C(=O)N[C@@H](Cc1ccccc1)C(N)=O` [L-685,458], the IC50 worked out at 210 ± 40 nM in test [1]; 190 ± 20 nM in [2]; 230 ± 30 nM in test [3]; 180 ± 30 nM in test [4]; 174 nM in test [5] (setting [12]); 174 nM in test [5] (setting [13]). Further, the “inhibition of parasite replication (in words)” value in test [5] is given as “complete inhibition”. For the same molecule, the “effect on parasite growth” value in test [5] is recorded as “significant inhibition”. In addition, the “inhibition of γ-secretase/Presenilin-1 activity (in words)” value in test [6] is listed as “inhibited”. Also, in test [9], the “effect on SPP activity (in words)” value was “inhibited”. Further, in test [7], the “effect on parasite/merozoite invasion (in words)” value was “efficiently inhibited; also recorded: significant decrease in the number of new rings”.
In the case of `C[C@H](NC(=O)[C@@H](O)c1cc(F)cc(F)c1)C(=O)N[C@@H]1C(=O)N(C)c2ccccc2-c2ccccc21` [LY411,575], the “inhibition of in vitro enzyme activity (in words)” value in [8] was “inhibited”.
Turning to “GST-5ABC: GST fusion protein of 5ABC peptide, residues 720-761 of human band 3 (SEQ ID NO:7) (GMPWLSATTVRSVTHANALTVMGKASTPGAAAQIQEVKEQRI; also: GST fusion; UniProt P02730 720-761, looked up, fragment)”, in [10], the “decrease of binding of PfSPP to RBCs” value turned out to be 94%.

B1: native Plasmodium falciparum signal peptide peptidase (PfSPP) (enzyme)
chain: MNLLKLIGKNKKMKNENMGNSIFYYSCYVIIVLTIILSKFVVIPLMAQMFLYTFITIYIGSHDSLKQLEIDDKTKKSDNITAYDAMMFPVIGSAALLTLYFAYKFLDPFYVNLLLTLYLTLAGVFSLQGVFTTILEPVFPNFFKKDEYVKTFKLPNFIYKEPIVFNTNKGEIVCLILSFAIGLRWIFYKDFITHNVLAVSFCFQAISLVILSNFLIGFLLLSGLFVYDIFWVFGNDVMVTVAKSFEAPVKLLFPVSSDPVHYSMLGLGDIIIPGILMSLCLRFDYYLFKNNIHKGNLKKMFNDISIHESFKKYYFYTIIIFYELGLVVTYCMLFYFEHPQPALLYLVPACILAILACSICKREFKLMIKYQEITDKSNTVDDASKNKKKDKEEIPKIQETPVSNAKKRITNK
notes: also called native PfSPP; native P. falciparum PfSPP
For B1, in test [11], the binding result is recorded as “binds”.

These data come from patent US20110171225A1, “Novel Plasmodium Falciparum Gene Encoding Signal Peptide Peptidase and Method of Using Inhibitors Thereof for Inhibiting Malarial Infection” (The Board of Trustees of the University of Illinois, priority 2008, published 2011).
